Measurements taken from patent US20230233305A1, “METHOD OF AMELIORATING OR TREATING INFLAMMATORY IN AN ORAL CAVITY” (priority 2022, published 2023).

Key:
[1] = tested on: domestic cats with feline chronic gingivostomatitis (FCGS); assay: Stomatitis disease activity index (SDAI) after mucogingival replacement surgery; type: in vivo
Excerpt: The stomatitis disease activity index is to score the condition of the subject by the following three aspects respectively and then add three scores to get the index: (1) owner evaluation (total score 0-3): the quality of life including appetite, activity level, grooming behavior, and perceived comfort would be scored by the owner, with a scale of 0-3, 0 is the best, and 3 is the worst; (2) weight (total score 0-3): the change in weight compared to most recent visit, with a scale of 0-3, 0 is an increase of more than 0.5 kg, 1 is an increase of 0.25-0.5 kg, 2 is an increase of 0-0.25 kg, and 3 is weight loss; (3) inflammatory symptoms (total score 0-24): inflammation in 8 different areas of the oral cavity, including maxillary buccal mucosa, mandibular buccal mucosa, maxillary attached gingiva, mandibular attached gingiva, lateral to palatoglossal folds, molar salivary gland, oropharynx, and sublingual area, with scale of 0-3, 0 is none, 1 is mild, 2 is moderate, and 3 is severe.

VDR = assay: Immunohistochemistry of inflamed oral mucosal tissue with anti-VDR; type: in vivo, domestic cats; conditions: after 6-week treatment vs 0th week
Experimental: (§1) The procedure of immunohistochemistry is briefly described as following. All steps are performed on the Leica Bond Max automatic immunohistochemistry machine. The aforementioned inflamed oral mucosal tissues fixed with formalin and embedded in paraffin is sectioned with a thickness of 5 μm, and placed on a glass slide suitable for performing immunohistochemistry. The tissue section is placed in a 50° C. oven for 15 minutes and is dewaxed twice with Bond Dewax Solution for 5 minutes. The tissue section is washed three times with Tris buffered saline (TBS, pH 7.6) for 5 minutes, and then treated with Bond Leica Alcohol for 5 minutes for tissue rehydration. After being washed three times with TBS for 5 minutes, the tissue section is heated at 100° C. with Bond Citrate buffer (pH 6), and the tissue used for detecting VDR is heated for 20 minutes, and the tissue used for detecting LC3B is heated for 40 minutes. After being washed three times with TBS for 5 minutes, the tissue section is reacted with Bond Peroxide solution for 8 minutes. After being washed three times with TBS for 5 minutes, the tissue section is reacted with Bond Protein blocking solution for 10 minutes. After being washed three times with TBS for 5 minutes, the tissue section is reacted with the primary antibodies for 30 minutes at room temperature, wherein the dilution ratio of anti-VDR antibody (ab3508) is 500×, and the dilution ratio of anti-LC3B antibody (ab239416) is 50×. After being washed three times with TBS for 5 minutes, the tissue section is reacted with Bond Post primary solution containing rabbit anti-mouse IgG antibody for 10 minutes. After being washed three times with TBS for 5 minutes, the tissue section is reacted with Bond Post primary solution containing Poly-HPR IgG for 10 minutes. After being washed three times with TBS for 5 minutes, the tissue section is reacted twice with Bond DAB solution for 3 minutes for coloration. […] The staining intensity and frequency of oral mucosal epithelial cells in the tissues are evaluated by the method provided by Shackelford. […]

LC3B = assay: Immunohistochemistry of inflamed oral mucosal tissue with anti-LC3B; type: in vivo, domestic cats; conditions: after 6-week treatment vs 0th week
Experimental: as §1

[2] = 0th week, vitamin D 200 ng/kg oral + 5 mg/kg deoxytetracycline (control: deoxytetracycline only), 5 mg/kg
[3] = 6th week, vitamin D 200 ng/kg oral + 5 mg/kg deoxytetracycline (control: deoxytetracycline only), 5 mg/kg

Substance	stomatitis disease activity index (SDAI) score [1, 2]	stomatitis disease activity index (SDAI) score [1, 3]	VDR in the inflamed oral mucosal tissue (IHC intensity and frequency) (VDR)	LC3B in the inflamed oral mucosal tissue (IHC intensity and frequency) (LC3B)	stomatitis disease activity index (SDAI) score ([1]; 0th week, vitamin D 200 ng/kg oral + 5 mg/kg deoxytetracycline (control: deoxytetracycline only))	stomatitis disease activity index (SDAI) score ([1]; 2nd week, 5 mg/kg deoxytetracycline)	stomatitis disease activity index (SDAI) score ([1]; 6th week, vitamin D 200 ng/kg oral + 5 mg/kg deoxytetracycline (control: deoxytetracycline only))
vitamin D [water-soluble vitamin D]	17.67	13.92	remains unchanged	increases	–	–	–
deoxytetracycline [control group (A)]	–	–	decreases	basically maintains a constant value	11.44	9.19	11.22
vitamin D [fat-soluble vitamin D]	13	11.5	increases	increases	–	–	–
